Experiment [1] concerns the target T1, human TLE1 443-770 (TLE1 WD40 domain) (Homo sapiens, UniProt Q04724).
T1 construct: the TLE1 WD40 domain (TLE1 residues 443–770); His6 (N, cleaved yes); made in house; host or cells: Sf9 insect cells (baculovirus, pFastBacHTb)
Put plainly: Thermal shift assay (TSA, ΔTm). Type of experiment: binding. The settings on record: 6 μM human TLE1 443-770, 25 mM Tris pH7.5, 125 mM NaCl, 1 mM DTT, 0.0002% Tween20, 3x SYPRO Orange, 10 °C to 95 °C, 0.5 °/min, mean of triplicate. As for the experimental part:
(§1) We next investigated the binding of this macrocycle, as well as acyclic MWRPW and FWRPW peptides, to TLE1. We used two orthogonal binding assays, the thermal shift assay10 and isothermal titration calorimetry (ITC),11 to test binding of 18 and the linear peptides to the TLE1 WD40 domain (TLE1 residues 443–770).
Figure 2 ΔT m plot of peptide–hTLE1 443–770 interactions in thermal shift experiments. All measurements were carried out in triplicate and the points are reported as mean+standard deviation (SD). […]
(§2) Cloning, Expression and Purification of humanTLE1 443- 770.
(§3) The construct encoding the sequence for human TLE1 443- 770 was generated ac c or ding Laurence Pearl’s laboratory procedure. Brief ly, the C-terminal region of human TLE1 (GenBank accession number M99435) encoding amino acids 443– 770 was PCR amplif ied and cloned into pFastBacHTb (GIBCO) in-frame with the N-terminal His6 tag sequence.
(§4) Starting from this construct we generated recombinant baculovirus using the Bac-to-Bac® Baculovirus Expression System (Thermo Fisher Scientif ic). For protein production, Sf9 insect cells were grown in sf -900 II SFM media (Thermo Fisher Scientific) to a cell density of around 2 × 10^6 cells per milliliter and inf ected with 20 μL of virus per 107cells. Inf ected cell cultures were harvested 3 days post-inf ection.
(§5) Cell pellets were resuspended in 6 volumes of lysis buffer (50 mM Tris pH 7.5, 500 mM NaCl, 1 mM MgCl) containing 1× complete EDTA-free protease inhibitors and 25 U/mL benzonase nuclease. The resuspended cells were lysed by sonication. Following […]
(§6) centrifugation, the supernatant was purified over 2x HiTrap talon crude columns (Cobalt - IMAC, GE). Columns were washed with 10m M Imidazole and then the protein was eluted in […]
(§7) The Talon eluate was incubated overnight at 4 °C with TEV protease to cleave the 6xHis tag and then re- loaded on talon column: the unbound wash contains the cleaved hTLE1 443- […]
(§8) The protein was subsequently purif ied over a Superdex 75 16/60 column that was equilibrated in 50 mM Hepes pH 7.5 + 250 mM naCl + 1 mM TCEP.
(§9) Selected f ractions were pooled, concentrated to 8 mg/mL and stored at - 80 °C. The protein was stable in these conditions f or up to three months.
(§10) Protein concentration was measured using an ND-1000 UV spectrophotometer (Nanodrop Technologies Inc., DE., USA). […]
1-2 days at 20 ◦C. Some crystals were transf erred to hanging drop (vapour diffusion) plates with the wells containing precipitant solution (PEG 8000 (22%), 100mM Na cacodylate, 100 mM Ca(OAc)2) and the drops containing the same precipitant solution supplemented with 1.0 or 2.5 mM peptide and a resultant final DMSO concentration of 1.0% or 2.5%, respectively. These crystals were soaked for around 5 h at 20 °C. Apo or peptide- s oak ed crystals were harvested, briefly transferred to cryprotectant (either paratone- N or a buffer containing ethylene glycol (40%), PEG 8000 […], 100 mM sodium cacodylate, 100 m M Ca(OAc)2) and f lash frozen in liquid nitrogen.
X-Ray data we r e collected at the Diamond Light Source, Oxford, UK on beamline I04.
Crystals belonged to the space group P2 1 and diffracted to between 1.6 and 2.9 Å. Dat a we r e integrated and merged using MOSFLM[4a,b] and AI MLESS.[4c] The structures were solved by molecular replacement using PHASER, [5] with either 2CE9 or our refined apo structure as the molecular replacement model with ligands and water removed. T he structures were manually rebuilt in COOT [6] and refined with BUSTER[7] in iterative cycles.
Ligand restraints f or the constrained peptide were generated with Grade[8] and Mogul.[9] T he quality of the structures was assessed with MOLPROBITY.[10]
Linear, unmodified peptides FW RPW and MWRPW were purchased from Cambridge Peptides as lyophilized powder. The peptides were then reconstituted in 1:1 mixture of DMSO and H2O as 10 mM stocks and stored at -80 °C. […]

Experiment [2] has as its target T1, human TLE1 443-770 (TLE1 WD40 domain). In words: Isothermal titration calorimetry (ITC), peptide–TLE1 binding. The settings on record: one-site independent binding model; TLE1 30 μM, peptide 350 μM; 25 °C, 50 mM Hepes pH7.5, 250 mM NaCl; mean ± SD, n = 2 (Table S1). A general note: ITC needs no label: the signal is the heat of the interaction.
For experiment [3] the target is unchanged. The description is as above. The settings on record: for Kd / affinity relative to unconstrained (acyclic) peptide: cyclic vs acyclic FWRPW.
Description: as §1
This was initially more pronounced for FWRPW and 18, but also recognisable for the MWRPW peptide (see Figure S1 in the Supporting Information). We repeated the MWRPW titration at slightly higher protein and peptide concentrations to achieve a higher enthalpy signal, and therefore, better resolution of the titration event. Under these conditions, we also observed a clear biphasic curve (Figure 3). The biphasic curves are indicative of two binding events and we calculated the thermodynamic data for both (Table 2).
Figure 3 Top: ITC measurements of peptide–TLE1 binding interactions. Data fitting to a two‐site independent binding model are shown; integrated heats are shown in the inset. Bottom: Histograms showing ΔG, ΔH, and −TΔS. The thermodynamic values are also presented in Table 1. a) MWRPW–TLE1 binding, n=1. Experiment performed with TLE1 (40 μM) and MWRPW peptide (420 μM). b) FWRPW–TLE1 binding, n=2. Experiment performed with TLE1 (30 μM), FWRPW peptide (240 μM), and then repeated with TLE1 (24 μM), FWRPW peptide (180 μM). Histograms represent averaged values; error bars denote SD. c) 18–TLE1 binding, n=2. Experiment performed with TLE1 (30 μM), 18 (200 μM) and then repeated with TLE1 (30 μM), 18 (180 μM). Histograms represent averaged values; error bars denote SD. […]
as §2, §3, §4, §5, §6, §7, §8, §9, §10
1-2 days at 20 ◦C. Some crystals were transf erred to hanging drop (vapour diffusion) plates with the wells containing precipitant solution (PEG 8000 (22%), 100mM Na cacodylate, 100 mM Ca(OAc)2) and the drops containing the same precipitant solution supplemented with 1.0 or 2.5 mM peptide and a resultant final DMSO concentration of 1.0% or 2.5%, respectively. These crystals were soaked for around 5 h at 20 °C. Apo or peptide- s oak ed crystals were harvested, briefly transferred to cryprotectant (either paratone- N or a buffer […]

A further experiment concerns the target TLE1 WDR domain. The settings on record: cited from earlier work. An excerpt: As discussed in more detail below, the bioactive conformation of this peptide is characterised by a compactly folded core formed by the central three amino acids. This compact core engages in extensive interactions with the WDR1 domain and positions key amino acid side chains such that they can form add ...

[4] abbreviates: first binding event, two-site independent binding model, 25 °C, pH7.5, MWRPW n=1, FWRPW and 18 n=2, mean ± SD.
Where [5] appears, read: second binding event, two-site independent binding model, 25 °C, pH7.5, MWRPW n=1, FWRPW and 18 n=2, mean ± SD.

One may read the ΔTm as the change in melting temperature against a reference sample.

Read-outs that look alike come from different tables or passages of the source. No end group written: not given here.

T1 sequence (Q04724 443-770): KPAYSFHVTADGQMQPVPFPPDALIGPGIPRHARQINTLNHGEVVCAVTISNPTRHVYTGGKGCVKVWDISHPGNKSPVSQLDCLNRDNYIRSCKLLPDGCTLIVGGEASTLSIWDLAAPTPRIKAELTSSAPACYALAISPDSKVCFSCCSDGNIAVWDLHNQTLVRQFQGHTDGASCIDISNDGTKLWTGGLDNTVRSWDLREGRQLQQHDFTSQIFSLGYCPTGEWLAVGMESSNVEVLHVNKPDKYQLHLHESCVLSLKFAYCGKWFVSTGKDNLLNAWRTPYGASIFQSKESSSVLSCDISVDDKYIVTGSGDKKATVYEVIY

For the molecule MWRPW [MWRPW, reference compound], the values for the ΔTm in experiment [1] (peptide 100 μM) and in experiment [1] (peptide 200 μM) were 6.3 °C and 6.9 °C, respectively. In experiment [2], this molecule registered a Kd of 0.704 ± 0.014 µM.

As to “FWRPW [linear, unmodified peptide purchased from Cambridge Peptides; acyclic counterpart of 18]”, the shift in melting temperature (ΔTm) in experiment [1] (peptide 100 μM) stood at 9.4 °C. Also, in experiment [1] (peptide 200 μM), the ΔTm was 10.1 °C. In experiment [3] (first binding event, two-site independent binding model, 25 °C, 50 mM Hepes pH7.5, 250 mM NaCl, 1 mM TCEP, 0.05% Tween 20, MWRPW n=1 (TLE1 40 μM, peptide 420 μM), FWRPW n=2 (TLE1 30/24 μM, peptide 240/180 μM), 18 n=2 (TLE1 30 μM, peptide 200/180 μM)), the N1 came out at 0.18±0.002. In addition, in experiment [3] (setting [4]), the ΔH1 is -20.5 ± 3.7 kcal/mol and the “−TΔS1” value was found to be 9.2 ± 3.8 kcal/mol. For the same molecule, the “fold more potent binding than MWRPW” value in experiment [3] (second binding event (Kd2)) is recorded as approximately 10 fold. The molecule further registered an N2 in experiment [3] (second binding event, two-site independent binding model, 25 °C, 50 mM Hepes pH7.5, 250 mM NaCl, 1 mM TCEP, 0.05% Tween 20, MWRPW n=1, FWRPW and 18 n=2) of 0.7±0.004. In experiment [3] (setting [5]), the ΔH2 is -14.6 ± 0 kcal/mol and the “−TΔS2” value was 4.6 ± 0.2 kcal/mol.

For `N=C(N)NCCC[C@@H]1NC(=O)[C@@H](NC(=O)[C@@H](N)Cc2ccccc2)Cc2cn(c3ccccc23)CCCC[C@@]2(C(=O)N[C@@H](Cc3c[nH]c4ccccc34)C(=O)O)CCCN2C1=O` [compound 18], the figures for the ΔTm in experiment [1] (peptide 100 μM) and in experiment [1] (peptide 200 μM) were 8.4 °C and 7.5 °C, respectively. The “Kd / affinity relative to unconstrained (acyclic) peptide” value is recorded as “approximately six‐fold lower affinity than that of the acyclic peptide” in experiment [3] and “approximately five‐fold higher” in experiment [3] (listed as cycFWRPW). In experiment [3] (second binding event, two-site independent binding model, 25 °C, 50 mM Hepes pH7.5, 250 mM NaCl, 1 mM TCEP, 0.05% Tween 20, MWRPW n=1 (TLE1 40 μM, peptide 420 μM), FWRPW n=2 (TLE1 30/24 μM, peptide 240/180 μM), 18 n=2 (TLE1 30 μM, peptide 200/180 μM), read-out: Kd2), the Kd is 0.522 ± 0.0396 µM.

As for “SMWRPW [acyclic design template (pdb code 2CE9)]”, the Kd at TLE1 WDR domain is 1 µM.

These data come from PMC5575474, “Structure‐Enabled Discovery of a Stapled Peptide Inhibitor to Target the Oncogenic Transcriptional Repressor TLE1” (Chemistry (Weinheim an Der Bergstrasse, Germany), 2017).
